These results are taken from patent US20250326753A1, “DUAL CXCR4-BTK INHIBITORS” (X4 Pharmaceuticals, Inc., priority 2022, published 2025).

Test [1] concerns the target T1, CXCR4 (Homo sapiens, UniProt P61073). The test can be described thus: Chemokine (CXCL12-AF647) binding inhibition assay, Jurkat cells expressing CXCR4. The conditions noted are these: CXCL12-AF647 25 ng/ml, read-out: IC50 CXCL-12 binding Jurkat. Here is the method: Jurkat cells expressing CXCR4 were washed once with assay buffer (Hanks' balanced salt solution with 20 mM HEPES buffer and 0.2% bovine serum albumin, pH 7.4) and then incubated for 15 min at room temperature with the test compounds diluted in assay buffer at dose-dependent concentrations. Subsequently, CXCL12-AF647 (25 ng/ml) was added to the compound-incubated cells. The cells were incubated for 30 min at room temperature. Thereafter, the cells were washed twice in assay buffer, fixed in 1% paraformaldehyde in PBS, and analyzed on the FL4 channel of a FACSCalibur flow cytometer equipped with a 635-nm red diode laser (Becton Dickinson, San Jose, CA, USA).
The percentages of inhibition of CXCL12-AF647 binding were calculated according to the formula: [1−((MFI−MFINC)/(MFIPC−MFINC))]×100 where MFI is the mean fluorescence intensity of the cells incubated with CXCL 12-AF647 in the presence of the inhibitor, MFINC is the mean fluorescence intensity measured in the negative control (i.e., autofluorescence of unlabeled cells), and MFIPC is the mean fluorescence intensity of the positive control (i.e., cells exposed to CXCL12-AF647 alone).

The target of test [2] is T2, BTK (Bruton tyrosine kinase) (Homo sapiens, UniProt Q06187).
T2 construct: GST or His (the text leaves open which); purchased Reaction Biology Europe GmbH Lot 012,11; host or cells: Sf9 insect cells or E. coli (not resolved)
T2 sequence (Q06187 whole entry): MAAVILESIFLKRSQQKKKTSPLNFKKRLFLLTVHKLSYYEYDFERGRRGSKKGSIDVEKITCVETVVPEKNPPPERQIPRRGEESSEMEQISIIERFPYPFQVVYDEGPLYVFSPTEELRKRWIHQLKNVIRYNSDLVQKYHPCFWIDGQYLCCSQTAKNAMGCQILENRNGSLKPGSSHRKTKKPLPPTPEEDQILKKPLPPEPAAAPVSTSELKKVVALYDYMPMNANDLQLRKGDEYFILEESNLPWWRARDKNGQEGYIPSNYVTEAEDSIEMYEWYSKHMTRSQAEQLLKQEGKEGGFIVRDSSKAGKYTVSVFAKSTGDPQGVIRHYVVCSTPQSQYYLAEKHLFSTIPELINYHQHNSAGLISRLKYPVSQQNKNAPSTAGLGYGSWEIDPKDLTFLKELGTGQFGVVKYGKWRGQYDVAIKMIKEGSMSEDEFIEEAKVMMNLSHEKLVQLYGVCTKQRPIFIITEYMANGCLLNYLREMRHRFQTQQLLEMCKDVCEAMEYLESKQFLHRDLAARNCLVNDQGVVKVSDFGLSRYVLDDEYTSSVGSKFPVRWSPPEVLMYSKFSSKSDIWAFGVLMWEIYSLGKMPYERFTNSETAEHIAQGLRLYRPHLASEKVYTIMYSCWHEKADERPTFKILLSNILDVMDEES
The experiment in a line: BTK screening assay (33PanQinase Activity Assay, radiometric). Format: biochemical. The conditions noted are these: Inhibition of BTK, radiometric 33PanQinase Activity Assay, 3 μM ATP, 10 concentrations in singlicate, top 10 μM; read-out: 33PanQinase ® Radiometric IC50. How it is done:
Inhibition of BTK activity was evaluated using a radiometric protein kinase assay (33PanQinase® Activity Assay) to measure the activity of BTK (Bruton tyrosine kinase).
Kinase assays were performed in 96-well ScintiPlates™ from Perkin Elmer (Boston, MA, USA) in a 50 μL reaction volume. The reaction cocktail was pipetted in four steps in the following order: 10 μL of non-radioactive ATP solution (in H2O); 25 μL of assay buffer/[γ-^33P]-ATP mixture; 5 μL of compound test sample in 10% DMSO; 10 μL of enzyme/substrate mixture.
BTK kinase was expressed in Sf9 insect cells or in E. coli as recombinant GST-fusion proteins or His-tagged proteins, either as full-length or enzymatically active fragments from human cDNAs, and purified by either GSH-affinity chromatography or immobilized metal. Purity was examined by SDS-PAGE/Coomassie staining, and identity confirmed by mass spectroscopy.
The reaction cocktails were incubated at 30° C. for 60 minutes. The reaction was stopped with 50 μL of 2% (v/v) H3PO4, plates were aspirated and washed two times with 200 μL 0.9% (w/v) NaCl. Incorporation of ^33Pi (counting of “cpm”) was determined with a microplate scintillation counter (Microbeta, Wallac).
The median value of the counts in wells containing assay buffer without enzyme, and without test compound was defined as “low control.” This value reflects unspecific binding of radioactivity to the plate in the absence of a protein kinase but in the presence of the substrate. The median value of the counts in wells containing assay buffer without test compound was defined as the “high control,” i.e. full activity in the absence of any inhibitor. The difference between high and low control was taken as 100% activity. Residual activity (in %) was calculated using the following formula: Res. Activity (%)=100×[(cpm of compound-low control)/(high control-low control)].
The fitting method used was a least-squares fit.

Test [3] has as its target T1, CXCR4. The experiment in a line: Intracellular CXCL-12-induced calcium mobilization assay (FLIPR), U87.CXCR4 cells. Format: cell-based. More on the design: expressed in transfected cells; host or cells: U87 (U87.CXCR4). The following applies: CXCL-12 25-50 ng/ml, read-out: IC50 CXCL-12 Ca2+ flux U87.CXCR4+. How it is done: Intracellular calcium mobilization induced by chemokines or chemokine-derived peptides were evaluated using a calcium responsive fluorescent probe and a FLIPR system. The CXCR-4 transfected U87 cell line (U87.CXCR4) cells were seeded in gelatine-coated black-wall 96-well plates at 20,000 cells per well and incubated for 12 hours. Cells were then loaded with the fluorescent calcium probe Fluo-2 acetoxymethyl at 4 μM final concentration in assay buffer (Hanks' balanced salt solution with 20 mM HEPES buffer and 0.2% bovine serum albumin, pH 7.4) for 45 min at 37° C. The intracellular calcium mobilization induced by the CXCL-12 (25-50 ng/ml) was then measured at 37° C. by monitoring the fluorescence as a function of time in all the wells simultaneously using a fluorometric imaging plate reader (FLIPR Tetra, Molecular Devices).

T1 sequence (P61073 whole entry): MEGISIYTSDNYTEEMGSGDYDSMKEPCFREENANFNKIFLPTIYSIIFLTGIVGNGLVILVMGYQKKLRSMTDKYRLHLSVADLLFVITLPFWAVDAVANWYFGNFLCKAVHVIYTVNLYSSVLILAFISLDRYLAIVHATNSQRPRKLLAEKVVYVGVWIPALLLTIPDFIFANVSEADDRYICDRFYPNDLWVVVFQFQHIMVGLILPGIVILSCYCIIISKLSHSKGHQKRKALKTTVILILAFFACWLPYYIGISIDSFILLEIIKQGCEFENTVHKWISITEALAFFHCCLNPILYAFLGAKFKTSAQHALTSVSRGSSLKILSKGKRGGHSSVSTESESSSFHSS

In the case of `Cc1cccnc1[C@H]1CCC[C@@H](c2ncccc2C)N1CCCNC(=O)[C@@H]1CC[C@@H](Nc2ncnc3[nH]cc(C(=O)c4ccc(Oc5ccccc5)cc4Cl)c23)CO1` [Compound I-20], the half-inhibitory concentration (IC50) in test [1] is 0.1 to 1 µM; in test [2], 0.001 to 0.1 µM; in test [3], > 2.5 µM.

Turning to `Cc1cccnc1[C@H]1CC(COC(=O)[C@@H]2CC[C@@H](Nc3ncnc4[nH]cc(C(=O)c5ccc(Oc6ccccc6)cc5Cl)c34)CO2)C[C@@H](c2ncccc2C)N1CCCCN` (some centres unmarked) [Compound I-21], the values for the IC50 in test [1], in test [2] and in test [3] were 0.001 to 0.1 µM, 0.001 to 0.1 µM and 0.1 to 1 µM, respectively.

Take `Cc1cccnc1[C@H]1CC(C(=O)OC[C@@H]2CC[C@@H](Nc3ncnc4[nH]cc(C(=O)c5ccc(Oc6ccccc6)cc5Cl)c34)CO2)C[C@@H](c2ncccc2C)N1CCCCN` (some centres unmarked) [Compound I-22]: the IC50 in test [1] was 0.001 to 0.1 µM; in test [2] it was 0.001 to 0.1 µM; in test [3], 0.1 to 1 µM.

For the compound `Cc1cc(-c2ncnc3[nH]c(S(=O)(=O)NCCN4[C@@H](c5ncccc5C)CCC[C@H]4c4ncccc4C)cc23)ccc1CNC(=O)c1ccc(C(C)(C)C)cc1` [Compound I-26], the IC50 in test [1] was > 2.5 µM; in test [2], 1 to 2.5 µM; in test [3], > 2.5 µM.

Turning to `Cc1cc(-c2ncnc3[nH]c(S(=O)(=O)NCCCN4[C@@H](c5ncccc5C)CCC[C@H]4c4ncccc4C)cc23)ccc1CNC(=O)c1ccc(C(C)(C)C)cc1` [Compound I-27], the half-maximal inhibitory concentration (IC50) was 0.1 to 1 µM in test [1], 0.1 to 1 µM in test [2] and > 2.5 µM in test [3].

For the compound `Cc1cc(-c2ncnc3[nH]c(S(=O)(=O)NCCCCN4[C@@H](c5ncccc5C)CCC[C@H]4c4ncccc4C)cc23)ccc1CNC(=O)c1ccc(C(C)(C)C)cc1` [Compound I-28], the half-maximal inhibitory concentration (IC50) was 0.1 to 1 µM in test [1], 1 to 2.5 µM in test [2] and > 2.5 µM in test [3].

Regarding `Cc1cc(-c2ccnc(Nc3cnn(CCCCN4[C@@H](c5ncccc5C)CCC[C@H]4c4ncccc4C)c3)n2)ccc1CNC(=O)N1CC(OC(C)C)C1` [Compound I-29], the IC50 in test [2] was 0.001 to 0.1 µM; in test [3], > 2.5 µM.

With `Cc1cccnc1[C@H]1CCC[C@@H](c2ncccc2C)N1CCCN1CCN(C(=O)c2ccc(-c3cc4c(-c5cccc(NC(=O)c6ccccc6)c5C)ncnc4[nH]3)cc2)CC1` [Compound I-30], the IC50 in test [1] is 0.001 to 0.1 µM; in test [2], 0.1 to 1 µM; in test [3], 0.001 to 0.1 µM.

Consider `Cc1cccnc1[C@H]1CCC[C@@H](c2ncccc2C)N1CCCCN1CCN(C(=O)c2ccc(-c3cc4c(-c5cccc(NC(=O)c6ccccc6)c5C)ncnc4[nH]3)cc2)CC1` [Compound I-31], for which the IC50 in test [1] fell in the range of 0.001 to 0.1 µM; in test [2] it was 0.1 to 1 µM; in test [3] it was 0.001 to 0.1 µM.

Regarding `Cc1cccnc1[C@H]1CCC[C@@H](c2ncccc2C)N1CCN1CCN(C(=O)c2ccc(-c3cc4c(-c5cccc(NC(=O)c6ccc(C(C)C)cc6)c5C)ncnc4[nH]3)cc2)CC1` [Compound I-32], the figures for the IC50 in test [1], in test [2] and in test [3] were 0.001 to 0.1 µM, 0.001 to 0.1 µM and > 2.5 µM, respectively.

Turning to `Cc1cccnc1[C@H]1CCC[C@@H](c2ncccc2C)N1CCN1CCN(C(=O)c2ccc(-c3cc4c(-c5cccc(NC(=O)c6cccc(C(C)C)c6)c5C)ncnc4[nH]3)cc2)CC1` [Compound I-33], the IC50 in test [1] was in the range of 0.001 to 0.1 µM; in test [2] it was 0.1 to 1 µM; in test [3], 0.1 to 1 µM.

As for `Cc1cccnc1[C@H]1CCC[C@@H](c2ncccc2C)N1CCN1CCN(C(=O)c2ccc(-c3cc4c(-c5cccc(NC(=O)c6ccc(C(F)(F)F)cc6)c5C)ncnc4[nH]3)cc2)CC1` [Compound I-34], the results for the half-inhibitory concentration (IC50) in test [1], in test [2] and in test [3] were 0.001 to 0.1 µM, 0.1 to 1 µM and 0.1 to 1 µM, respectively.

`Cc1cccnc1[C@H]1CCC[C@@H](c2ncccc2C)N1CCNC1CN(C(=O)c2ccc(-c3cc4c(-c5cccc(NC(=O)c6ccc(C(C)C)cc6)c5C)ncnc4[nH]3)cc2)C1` [Compound I-35]: the IC50 in test [1], in test [2] and in test [3] was 0.001 to 0.1 µM throughout.

For the compound `Cc1cccnc1[C@H]1CCC[C@@H](c2ncccc2C)N1CCNC1CN(C(=O)c2ccc(-c3cc4c(-c5cccc(NC(=O)c6cccc(C(C)C)c6)c5C)ncnc4[nH]3)cc2)C1` [Compound I-36], the IC50 in test [1] was 0.001 to 0.1 µM; in test [2] it was 1 to 2.5 µM; in test [3], 0.1 to 1 µM.

Take `Cc1cccnc1[C@H]1CCC[C@@H](c2ncccc2C)N1CCNC1CN(C(=O)c2ccc(-c3cc4c(-c5cccc(NC(=O)c6ccc(C(F)(F)F)cc6)c5C)ncnc4[nH]3)cc2)C1` [Compound I-37]: the figures for the 50% inhibitory concentration (IC50) in test [1], in test [2] and in test [3] were 0.001 to 0.1 µM, 0.1 to 1 µM and 0.001 to 0.1 µM, respectively.

As for `Cc1cc(-c2ncnc3[nH]c(C(=O)NCCCN4[C@@H](c5ncccc5C)CCC[C@H]4c4ncccc4C)cc23)ccc1CNC(=O)c1ccc(C(C)C)cc1` [Compound I-38], the IC50 in test [1] was 0.001 to 0.1 µM; in test [2], 0.001 to 0.1 µM; in test [3] it was 0.1 to 1 µM.

Regarding `Cc1cc(-c2ncnc3[nH]c(C(=O)NCCCN4[C@@H](c5ncccc5C)CCC[C@H]4c4ncccc4C)cc23)ccc1CNC(=O)c1cccc(C(C)C)c1` [Compound I-39], the IC50 in test [1] is 0.001 to 0.1 µM; in test [2], 0.1 to 1 µM; in test [3], > 2.5 µM.

On to `Cc1cc(-c2ncnc3[nH]c(C(=O)NCCCN4[C@@H](c5ncccc5C)CCC[C@H]4c4ncccc4C)cc23)ccc1CNC(=O)c1ccc(C(F)(F)F)cc1` [Compound I-40], for which the 50% inhibitory concentration (IC50) in test [1] was 0.001 to 0.1 µM; in test [2], 0.001 to 0.1 µM; in test [3] it was > 2.5 µM.

In the case of `COC1CN(C(=O)NCc2ccc(-c3ccnc(Nc4cnn(CCN5[C@@H](c6ncccc6C)CCC[C@H]5c5ncccc5C)c4)n3)cc2C)C1` [Compound I-41], the half-maximal inhibitory concentration (IC50) was 0.001 to 0.1 µM in test [1], 0.001 to 0.1 µM in test [2] and > 2.5 µM in test [3].

With `Cc1cc(-c2ccnc(Nc3cnn(CCN4[C@@H](c5ncccc5C)CCC[C@H]4c4ncccc4C)c3)n2)ccc1CNC(=O)N1CC(OC(C)(C)C)C1` [Compound I-42], the IC50 in test [1] fell in the range of 0.001 to 0.1 µM; in test [2], 0.001 to 0.1 µM; in test [3], 0.1 to 1 µM.

As for `Cc1cc(-c2ccnc(Nc3cnn(CCN4[C@@H](c5ncccc5C)CCC[C@H]4c4ncccc4C)c3)n2)ccc1CNC(=O)N1CC(OC(F)(F)F)C1` [Compound I-43], the IC50 in test [1] was in the range of 0.001 to 0.1 µM; in test [2], 0.001 to 0.1 µM; in test [3] it was 0.1 to 1 µM.

Take `Cc1cc(-c2ncnc3[nH]c(C(=O)NCCCCN4[C@@H](c5ncccc5C)CCC[C@H]4c4ncccc4C)cc23)ccc1CNC(=O)c1ccc(C(C)C)cc1` [Compound I-44]: the IC50 in test [1] fell in the range of 0.001 to 0.1 µM; in test [2], 0.001 to 0.1 µM; in test [3], 0.1 to 1 µM.

`Cc1cc(-c2ncnc3[nH]c(C(=O)NCCCCN4[C@@H](c5ncccc5C)CCC[C@H]4c4ncccc4C)cc23)ccc1CNC(=O)c1cccc(C(C)C)c1` [Compound I-45]: the values for the IC50 in test [1], in test [2] and in test [3] were 0.001 to 0.1 µM, 0.001 to 0.1 µM and 1 to 2.5 µM, respectively.
